Measured values taken from PubChem BioAssay AID1963839 (Molecular Pharmacology Branch, DTP, NCI, 2024).

Tested on: 817829-284-R-J1-PDC complex spheroid viability
Experiment: Anticancer human tumor 817829-284-R-J1-PDC patient-derived colon adenocarcinoma cell line growth inhibition [POLQ]
Details: for IC50: curve of first compound; for viability, T/C: stronger effect = lower value
Method in brief: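 Three-cell-type spheroids modelling solid tumor plus stroma served as the readout system; POL inhibitors were tested individually and in combination, concentration ranges set by clinical Cmax where known.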

[1] = second compound 0.0316 µM, first compound 0.0316 µM
[2] = second compound 0.0316 µM, first compound 0.1 µM
[3] = second compound 0.0316 µM, first compound 0.316 µM
[4] = second compound 0.0316 µM, first compound 1 µM
[5] = second compound 0.1 µM, first compound 0.0316 µM
[6] = second compound 0.1 µM, first compound 0.1 µM
[7] = second compound 0.1 µM, first compound 0.316 µM
[8] = second compound 0.1 µM, first compound 1 µM
[9] = second compound 0.316 µM, first compound 0.0316 µM
[10] = second compound 0.316 µM, first compound 0.1 µM
[11] = second compound 0.316 µM, first compound 0.316 µM
[12] = second compound 0.316 µM, first compound 1 µM
[13] = second compound 1 µM, first compound 0.0316 µM
[14] = second compound 1 µM, first compound 0.1 µM
[15] = second compound 1 µM, first compound 0.316 µM
[16] = second compound 1 µM, first compound 1 µM
[17] = second compound 3.16 µM, first compound 0.0316 µM
[18] = second compound 3.16 µM, first compound 0.1 µM
[19] = second compound 3.16 µM, first compound 0.316 µM
[20] = second compound 3.16 µM, first compound 1 µM
[21] = second compound 10 µM, first compound 0.0316 µM
[22] = second compound 10 µM, first compound 0.1 µM
[23] = second compound 10 µM, first compound 0.316 µM
[24] = second compound 10 µM, first compound 1 µM
[25] = second compound 0.0316 µM, first compound 3.16 µM
[26] = second compound 0.0316 µM, first compound 10 µM
[27] = second compound 0.1 µM, first compound 3.16 µM
[28] = second compound 0.1 µM, first compound 10 µM
[29] = second compound 0.316 µM, first compound 3.16 µM
[30] = second compound 0.316 µM, first compound 10 µM
[31] = second compound 1 µM, first compound 3.16 µM
[32] = second compound 1 µM, first compound 10 µM
[33] = second compound 3.16 µM, first compound 3.16 µM
[34] = second compound 3.16 µM, first compound 10 µM
[35] = second compound 10 µM, first compound 3.16 µM
[36] = second compound 10 µM, first compound 10 µM
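Also: spheroids exposed to compounds for 7 days.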
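For viability, T/C in this document: 100% = DMSO vehicle-treated spheroids.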

## C=CCn1c(=O)c2cnc(Nc3ccc(N4CCN(C)CC4)cc3)nc2n1-c1cccc(C(C)(C)O)n1 + COC1C(OC(N)=O)C(O)C(Oc2ccc3c(O)c(NC(=O)c4ccc(O)c(CC=C(C)C)c4)c(=O)oc3c2C)OC1(C)C
Second compound 0.0316 µM
  IC50: 161 nM
Second compound 0.1 µM
  IC50: 144 nM
Second compound 0.316 µM
  IC50: 176 nM
Second compound 1 µM
  IC50: 190 nM
Second compound 3.16 µM
  IC50: 176 nM
Second compound 10 µM
  IC50: 133 nM
Second compound 0.0316 µM, first compound 0.00316 µM
  viability, T/C: 93%
Second compound 0.0316 µM, first compound 0.01 µM
  viability, T/C: 74.8%
[1]
  viability, T/C: 91.3%
[2]
  viability, T/C: 58%
[3]
  viability, T/C: 33.6%
[4]
  viability, T/C: 7.07%
Second compound 0.1 µM, first compound 0.00316 µM
  viability, T/C: 107%
Second compound 0.1 µM, first compound 0.01 µM
  viability, T/C: 91.4%
[5]
  viability, T/C: 87.2%
[6]
  viability, T/C: 55.5%
[7]
  viability, T/C: 32.3%
[8]
  viability, T/C: 6.47%
Second compound 0.316 µM, first compound 0.00316 µM
  viability, T/C: 100%
Second compound 0.316 µM, first compound 0.01 µM
  viability, T/C: 96.8%
[9]
  viability, T/C: 96.6%
[10]
  viability, T/C: 72%
[11]
  viability, T/C: 26.7%
[12]
  viability, T/C: 6%
Second compound 1 µM, first compound 0.00316 µM
  viability, T/C: 82.8%
Second compound 1 µM, first compound 0.01 µM
  viability, T/C: 95.9%
[13]
  viability, T/C: 110%
[14]
  viability, T/C: 70.6%
[15]
  viability, T/C: 32.2%
[16]
  viability, T/C: 7.21%
Second compound 3.16 µM, first compound 0.00316 µM
  viability, T/C: 109%
Second compound 3.16 µM, first compound 0.01 µM
  viability, T/C: 107%
[17]
  viability, T/C: 83%
[18]
  viability, T/C: 69.7%
[19]
  viability, T/C: 32.2%
[20]
  viability, T/C: 7.29%
Second compound 10 µM, first compound 0.00316 µM
  viability, T/C: 67.5%
Second compound 10 µM, first compound 0.01 µM
  viability, T/C: 96.1%
[21]
  viability, T/C: 69.7%
[22]
  viability, T/C: 55.2%
[23]
  viability, T/C: 30.8%
[24]
  viability, T/C: 8.11%

## CC1COCCN1c1cc(-c2ccnn2C)c2ccnc(-c3ccn[nH]3)c2n1 (stereo unspecified) + COC1C(OC(N)=O)C(O)C(Oc2ccc3c(O)c(NC(=O)c4ccc(O)c(CC=C(C)C)c4)c(=O)oc3c2C)OC1(C)C
Second compound 0.0316 µM
  IC50: < 31.6 nM
Second compound 0.1 µM
  IC50: < 31.6 nM
Second compound 0.316 µM
  IC50: < 31.6 nM
Second compound 1 µM
  IC50: < 31.6 nM
Second compound 3.16 µM
  IC50: < 31.6 nM
Second compound 10 µM
  IC50: < 31.6 nM
[1]
  viability, T/C: 30.4%
[2]
  viability, T/C: 13.2%
[3]
  viability, T/C: 5.49%
[4]
  viability, T/C: 4.46%
[25]
  viability, T/C: 3.26%
[26]
  viability, T/C: 3.12%
[5]
  viability, T/C: 38.1%
[6]
  viability, T/C: 12.8%
[7]
  viability, T/C: 4.68%
[8]
  viability, T/C: 4.07%
[27]
  viability, T/C: 3.1%
[28]
  viability, T/C: 3.09%
[9]
  viability, T/C: 38.2%
[10]
  viability, T/C: 11.9%
[11]
  viability, T/C: 5.3%
[12]
  viability, T/C: 4.05%
[29]
  viability, T/C: 3.4%
[30]
  viability, T/C: 2.6%
[13]
  viability, T/C: 26.4%
[14]
  viability, T/C: 11.9%
[15]
  viability, T/C: 5.6%
[16]
  viability, T/C: 4.46%
[31]
  viability, T/C: 3.01%
[32]
  viability, T/C: 2.34%
[17]
  viability, T/C: 42.2%
[18]
  viability, T/C: 11%
[19]
  viability, T/C: 7.02%
[20]
  viability, T/C: 4.4%
[33]
  viability, T/C: 2.97%
[34]
  viability, T/C: 2.67%
[21]
  viability, T/C: 47.5%
[22]
  viability, T/C: 13.4%
[23]
  viability, T/C: 5.44%
[24]
  viability, T/C: 4.22%
[35]
  viability, T/C: 3.19%
[36]
  viability, T/C: 2.65%

## CCCS(=O)(=O)Nc1ccc(F)c(C(=O)c2c[nH]c3ncc(-c4ccc(Cl)cc4)cc23)c1F + COC1C(OC(N)=O)C(O)C(Oc2ccc3c(O)c(NC(=O)c4ccc(O)c(CC=C(C)C)c4)c(=O)oc3c2C)OC1(C)C
Second compound 0.0316 µM
  IC50: 2410 nM
Second compound 0.1 µM
  IC50: 3340 nM
Second compound 0.316 µM
  IC50: 4390 nM
Second compound 1 µM
  IC50: 2900 nM
Second compound 3.16 µM
  IC50: 5230 nM
Second compound 10 µM
  IC50: 3520 nM
[1]
  viability, T/C: 76%
[2]
  viability, T/C: 77%
[3]
  viability, T/C: 73.6%
[4]
  viability, T/C: 73.4%
[25]
  viability, T/C: 42.9%
[26]
  viability, T/C: 16.6%
[5]
  viability, T/C: 76.6%
[6]
  viability, T/C: 74.8%
[7]
  viability, T/C: 43.4%
[8]
  viability, T/C: 86.7%
[27]
  viability, T/C: 51.9%
[28]
  viability, T/C: 12.8%
[9]
  viability, T/C: 48.3%
[10]
  viability, T/C: 71.4%
[11]
  viability, T/C: 58.7%
[12]
  viability, T/C: 71.2%
[29]
  viability, T/C: 68.5%
[30]
  viability, T/C: 15.9%
[13]
  viability, T/C: 86.4%
[14]
  viability, T/C: 80.6%
[15]
  viability, T/C: 48.5%
[16]
  viability, T/C: 74.6%
[31]
  viability, T/C: 51.6%
[32]
  viability, T/C: 13%
[17]
  viability, T/C: 76.3%
[18]
  viability, T/C: 76.8%
[19]
  viability, T/C: 89.3%
[20]
  viability, T/C: 79.1%
[33]
  viability, T/C: 76.3%
[34]
  viability, T/C: 16.1%
[21]
  viability, T/C: 82%
[22]
  viability, T/C: 86.4%
[23]
  viability, T/C: 62.1%
[24]
  viability, T/C: 86.4%
[35]
  viability, T/C: 53.8%
[36]
  viability, T/C: 13%
